Molecular target: human factor IXa (Homo sapiens (Human), UniProt P00740)
Experiment: Determination of inhibitory activity against factor IXa (fluorogenic substrate SPECTROFLUOR FIXa)
Type: biochemical
Settings: Factor IXa enzyme assay human
Experimental: Inhibitory activity against factor IXa was tested using the substrate SPECTROFLUOR FIXa (american diagnostica inc.; 500 West Avenue, Stamford, Conn. 06902 USA; Pr. No. 299F) and human factor IXa (american diagnostica inc.; Pr. No. 449b). Test substances were dissolved in buffer A (50 mM α,α,α-tris (hydroxymethyl) methylamine (Tris), 100 mM NaCl, 5 mM CaCl2, 15% (v/v) ethylene glycol, pH 8.0) were mixed with factor IXa (0.1 μg/ml final concentration). The enzyme reaction was started by addition of SPECTROFLUOR FIXa (100 μM final concentration). After incubation for 60 minutes at room temperature, the reaction was stopped by the addition of 20% (v/v) acetic acid solution, and then the fluorescence value was measured (Excitation Wavelength: 355 nm, Emission Wavelength; 460 nm) in a microtiter plate reader (ARVO 1420 Multilabel Counter; PerkinElmer).
The IC50 was calculated from a dilution series of the test substance with the aid of the software, Symyx Assay Explorer (Symyx Technologies, Inc.).

Sequence of human factor IXa (P00740 227-461): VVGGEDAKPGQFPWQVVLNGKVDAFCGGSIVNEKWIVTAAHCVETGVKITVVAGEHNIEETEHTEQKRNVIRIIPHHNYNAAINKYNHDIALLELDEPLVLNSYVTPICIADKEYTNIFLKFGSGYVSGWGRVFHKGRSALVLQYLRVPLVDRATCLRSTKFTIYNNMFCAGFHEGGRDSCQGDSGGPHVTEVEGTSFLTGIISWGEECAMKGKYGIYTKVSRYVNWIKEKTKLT
Sequence of human factor IXa (P00740 47-191 partner): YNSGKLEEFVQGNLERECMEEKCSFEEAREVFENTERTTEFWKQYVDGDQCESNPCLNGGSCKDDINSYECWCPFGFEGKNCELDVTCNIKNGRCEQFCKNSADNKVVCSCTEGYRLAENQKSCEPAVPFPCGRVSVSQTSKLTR

IC50, ≤ 100 nM:
Nc1noc2c(N3C[C@@H]4CC[C@H]3[C@@H]4NC(=O)c3ccc(-n4cnnc4)cc3Cl)cccc12 (relative stereo) [Example 1, N-((1S*,4S*, 7R*)-2-(3-Aminobenzo[d]isoxazol-7-yl)-2-azabicyclo[2.2.1]heptan-7-yl)-2-chloro-4-(4H-1,2,4-triazol-4-yl)benzamide]
Cc1ncn(-c2ccc(C(=O)N[C@@H]3[C@H]4CC[C@@H]3N(c3nccc5c(N)noc35)C4)c(Cl)c2)n1 (relative stereo) [Example 2, N-((1S*,4S*,7R*)-2-(3-Aminoisoxazolo[5,4-c]pyridin-7-yl)-2-azabicyclo[2.2.1]heptan-7-yl)-2-chloro-4-(3-methyl-1H-1,2,4-triazol-1-yl)benzamide]
Cc1cc(N2C[C@@H]3CC[C@H]2[C@@H]3NC(=O)c2c(Cl)cc(-n3cnc(C)n3)cc2Cl)c2onc(N)c2c1 (relative stereo) [Example 3, N-((1S*,4S*,7R*)-2-(3-Amino-5-methylbenzo[d]isoxazol-7-yl)-2-azabicyclo[2.2.1]heptan-7-yl)-2,6-dichloro-4-(3-methyl-1H-1,2,4-triazol-1-yl)benzamide]
Cc1ncn(-c2ccc(C(=O)N[C@@H]3[C@H]4CC[C@@H]3N(c3cc(Cl)cc5c(N)noc35)C4)c(Cl)c2)n1 (relative stereo) [Example 4, N-((1S*,4S*,7R*)-2-(3-Amino-5-chlorobenzo[d]isoxazol-7-yl)-2-azabicyclo[2.2.1]heptan-7-yl)-2-chloro-4-(3-methyl-1H-1,2,4-triazol-1-yl)benzamide]
Nc1noc2c(N3C[C@@H]4CC[C@H]3[C@@H]4NC(=O)c3ccc(-n4cnnc4)cc3Cl)ccc(Cl)c12 (relative stereo) [Example 5, N-((1S*,4S*,7R*)-2-(3-Amino-4-chlorobenzo[d]isoxazol-7-yl)-2-azabicyclo[2.2.1]heptan-7-yl)-2-chloro-4-(4H-1,2,4-triazol-4-yl)benzamide]
Nc1noc2c(N3C[C@@H]4CC[C@H]3[C@@H]4NC(=O)c3ccc(-n4cnnc4)cc3Cl)ncc(Cl)c12 (relative stereo) [Example 6, N-((1S*,4S*,7R*)-2-(3-Amino-4-chloroisoxazolo[5,4-c]pyridin-7-yl)-2-azabicyclo[2.2.1]heptan-7-yl)-2-chloro-4-(4H-1,2,4-triazol-4-yl)benzamide]
Nc1noc2c(N3C[C@@H]4CC[C@H]3[C@@H]4NC(=O)c3ccc(-c4cncnc4)cc3Cl)ncc(Cl)c12 (relative stereo) [Example 9, N-((1S*,4S*,7R*)-2-(3-Amino-4-chloroisoxazolo[5,4-c]pyridin-7-yl)-2-azabicyclo[2.2.1]heptan-7-yl)-2-chloro-4-(pyrimidin-5-yl)benzamide]
COc1ncc(-c2ccc(C(=O)N[C@@H]3[C@H]4CC[C@@H]3N(c3ncc(Cl)c5c(N)noc35)C4)c(Cl)c2)cn1 (relative stereo) [Example 10, N-((1S*,4S*,7R*)-2-(3-Amino-4-chloroisoxazolo[5,4-c]pyridin-7-yl)-2-azabicyclo[2.2.1]heptan-7-yl)-2-chloro-4-(2-methoxypyrimidin-5-yl)benzamide]
Nc1noc2c(N3C[C@@H]4CC[C@H]3[C@@H]4NC(=O)c3ccc(-c4ccnnc4)cc3Cl)ncc(Cl)c12 (relative stereo) [Example 12, N-((1S*,4S*,7R*)-2-(3-Amino-4-chloroisoxazolo[5,4-c]pyridin-7-yl)-2-azabicyclo[2.2.1]heptan-7-yl)-2-chloro-4-(pyridazin-4-yl)benzamide]
Nc1noc2c(N3C[C@@H]4CC[C@H]3[C@@H]4NC(=O)c3ccc(-n4cnnc4)cc3)ncc(Cl)c12 (relative stereo) [Example 13, N-((1S*,4S*,7R*)-2-(3-Amino-4-chloroisoxazolo[5,4-c]pyridin-7-yl)-2-azabicyclo[2.2.1]heptan-7-yl)-4-(4H-1,2,4-triazol-4-yl)benzamide]
Nc1noc2c(N3C[C@@H]4CC[C@H]3[C@@H]4NC(=O)c3ccc(-n4cnc(CCO)c4)cc3Cl)ncc(Cl)c12 (relative stereo) [Example 14, N-((1S*,4S*,7R*)-2-(3-Amino-4-chloroisoxazolo[5,4-c]pyridin-7-yl)-2-azabicyclo[2.2.1]heptan-7-yl)-2-chloro-4-(4-(2-hydroxyethyl)-1H-imidazol-1-yl)benzamide]
Cc1cc2c(N)noc2c(N2C[C@@H]3CC[C@H]2[C@@H]3NC(=O)c2ccc(-n3cc(CCO)nn3)cc2Cl)n1 (relative stereo) [Example 15, N-((1S*,4S*,7R*)-2-(3-Amino-5-methylisoxazolo[5,4-c]pyridin-7-yl)-2-azabicyclo[2.2.1]heptan-7-yl)-2-chloro-4-(4-(2-hydroxyethyl)-1H-1,2,3-triazol-1-yl)benzamide]
Nc1noc2c(N3C[C@@H]4CC[C@H]3[C@@H]4NC(=O)c3ccc(-n4cnnc4C(F)F)cc3Cl)ncc(Cl)c12 (relative stereo) [Example 16, N-((1S*,4S*,7R*)-2-(3-Amino-4-chloroisoxazolo[5,4-c]pyridin-7-yl)-2-azabicyclo[2.2.1]heptan-7-yl)-2-chloro-4-(3-(difluoromethyl)-4H-1,2,4-triazol-4-yl)benzamide]
Cc1cc2c(N)noc2c(N2C[C@@H]3CC[C@H]2[C@@H]3NC(=O)c2ccc(-c3cnc(C#N)nc3)cc2Cl)n1 (relative stereo) [Example 17, N-((1S*,4S*,7R*)-2-(3-Amino-5-methylisoxazolo[5,4-c]pyridin-7-yl)-2-azabicyclo[2.2.1]heptan-7-yl)-2-chloro-4-(2-cyanopyrimidin-5-yl)benzamide]
Cn1cc(-c2ccc(C(=O)N[C@@H]3[C@H]4CC[C@@H]3N(c3ncc(Cl)c5c(N)noc35)C4)c(Cl)c2)ccc1=O (relative stereo) [Example 18, N-((1S*,4S*,7R*)-2-(3-Amino-4-chloroisoxazolo[5,4-c]pyridin-7-yl)-2-azabicyclo[2.2.1]heptan-7-yl)-2-chloro-4-(1-methyl-6-oxo-1,6-dihydropyridin-3-yl)benzamide]
Nc1noc2c(N3C[C@@H]4CC[C@H]3[C@@H]4NC(=O)c3ccc(-c4ccc(=O)n(C(F)F)c4)cc3Cl)ncc(Cl)c12 (relative stereo) [Example 19, N-((1S*,4S*,7R*)-2-(3-Amino-4-chloroisoxazolo[5,4-c]pyridin-7-yl)-2-azabicyclo[2.2.1]heptan-7-yl)-2-chloro-4-(1-(difluoromethyl)-6-oxo-1,6-dihydropyridin-3-yl)benzamide]
Nc1noc2c(N3C[C@@H]4CC[C@H]3[C@@H]4NC(=O)c3ccc(-c4ccc5nncn5c4)cc3Cl)ncc(Cl)c12 (relative stereo) [Example 20, 4-([1,2,4]Triazolo[4,3-a]pyridin-6-yl)-N-((1S*,4S*,7R*)-2-(3-amino-4-chloroisoxazolo[5,4-c]pyridin-7-yl)-2-azabicyclo[2.2.1]heptan-7-yl)-2-chlorobenzamide]
Nc1noc2c(N3C[C@@H]4CC[C@H]3[C@@H]4NC(=O)c3ccc(-n4cnc5ccccc54)cc3Cl)ncc(Cl)c12 (relative stereo) [Example 21, N-((1S*,4S*,7R*)-2-(3-Amino-4-chloroisoxazolo[5,4-c]pyridin-7-yl)-2-azabicyclo[2.2.1]heptan-7-yl)-4-(1H-benzo[d]imidazol-1-yl)-2-chlorobenzamide]

From US9808445B2, “Factor IXa inhibitors” (Merck Sharp & Dohme Corp., priority 2014, dated 2017)
